Data: PubChem BioAssay (NCI)
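Method: 48-hour compound exposure of cells in 96-well plates, five concentrations, linear interpolation of endpoints. Here, GI50 denotes the concentration required for 50% inhibition of growth. TGI: concentration producing complete growth inhibition.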

Key:
Experiment in all cases: growth of human tumour cells (NCI), 48 h
SF-268 CNS = test system: SF-268 CNS
U251 CNS = test system: U251 CNS
NCI-H522 lung = test system: NCI-H522 lung
MDA-MB-435 = test system: MDA-MB-435
SK-MEL-28 melanoma = test system: SK-MEL-28 melanoma
MALME-3M melanoma = test system: MALME-3M melanoma
HCC-2998 colon = test system: HCC-2998 colon
UACC-62 melanoma = test system: UACC-62 melanoma
SW-620 colon = test system: SW-620 colon
ACHN renal = test system: ACHN renal
SNB-19 CNS = test system: SNB-19 CNS
EKVX NSCLC = test system: EKVX NSCLC
NCI-H460 lung = test system: NCI-H460 lung
LOX IMVI melanoma = test system: LOX IMVI melanoma
K-562 leukemia = test system: K-562 leukemia
HCT-116 colon = test system: HCT-116 colon
786-0 renal = test system: 786-0 renal
KM12 colon = test system: KM12 colon
SF-295 CNS = test system: SF-295 CNS
OVCAR-4 ovarian = test system: OVCAR-4 ovarian
A549 NSCLC = test system: A549 NSCLC
UO-31 renal = test system: UO-31 renal
BT-549 breast = test system: BT-549 breast
MOLT-4 leukemia = test system: MOLT-4 leukemia
DU-145 prostate = test system: DU-145 prostate
HOP-62 NSCLC = test system: HOP-62 NSCLC
CAKI-1 renal = test system: CAKI-1 renal
OVCAR-3 ovarian = test system: OVCAR-3 ovarian
HCT-15 colon = test system: HCT-15 colon
COLO 205 colon = test system: COLO 205 colon
SF-539 CNS = test system: SF-539 CNS
SK-MEL-5 melanoma = test system: SK-MEL-5 melanoma
MDA-MB-231 breast = test system: MDA-MB-231 breast
HS 578T breast = test system: HS 578T breast
TK-10 renal = test system: TK-10 renal
MCF7 breast = test system: MCF7 breast
RXF 393 renal = test system: RXF 393 renal
M14 melanoma = test system: M14 melanoma
SK-OV-3 ovarian = test system: SK-OV-3 ovarian
OVCAR-8 ovarian = test system: OVCAR-8 ovarian
PC-3 prostate = test system: PC-3 prostate
SR leukemia = test system: SR leukemia
OVCAR-5 ovarian = test system: OVCAR-5 ovarian
HOP-92 NSCLC = test system: HOP-92 NSCLC
T-47D breast = test system: T-47D breast
NCI-H23 lung = test system: NCI-H23 lung
A498 renal = test system: A498 renal
NCI/ADR-RES ovarian = test system: NCI/ADR-RES ovarian
CCRF-CEM leukemia = test system: CCRF-CEM leukemia
UACC-257 melanoma = test system: UACC-257 melanoma
SK-MEL-2 melanoma = test system: SK-MEL-2 melanoma
NCI-H226 lung = test system: NCI-H226 lung
HT29 colon = test system: HT29 colon
RPMI-8226 leukemia = test system: RPMI-8226 leukemia
SN12C renal = test system: SN12C renal
SNB-75 CNS = test system: SNB-75 CNS
IGROV1 ovarian = test system: IGROV1 ovarian
HL-60(TB) leukemia = test system: HL-60(TB) leukemia

## CC(=O)OC[C@]1(C)C=C2C(=O)[C@](C)(O)C3(CC3)C(C)=C2[C@H]1O
SF-268 CNS
  GI50: 0.0384 µM
  TGI: 0.499 µM
U251 CNS
  GI50: 0.068 µM
  TGI: 6.16 µM
NCI-H522 lung
  GI50: 0.0798 µM
  TGI: 0.39 µM
MDA-MB-435
  GI50: 0.136 µM
  TGI: 0.587 µM
SK-MEL-28 melanoma
  GI50: 0.215 µM
  TGI: 0.575 µM
MALME-3M melanoma
  GI50: 0.124 µM
  TGI: 0.302 µM
HCC-2998 colon
  GI50: 0.0985 µM
  TGI: 0.353 µM
UACC-62 melanoma
  GI50: 0.0894 µM
  TGI: 0.302 µM
SW-620 colon
  GI50: 0.044 µM
  TGI: > 50 µM
ACHN renal
  GI50: 0.0221 µM
  TGI: 0.0501 µM
SNB-19 CNS
  GI50: 0.193 µM
  TGI: 1.28 µM
EKVX NSCLC
  GI50: 0.252 µM
  TGI: 1.2 µM
NCI-H460 lung
  GI50: 0.0282 µM
  TGI: 0.0844 µM
LOX IMVI melanoma
  GI50: 0.0875 µM
  TGI: 0.65 µM
K-562 leukemia
  GI50: 0.131 µM
  TGI: > 100 µM
HCT-116 colon
  GI50: 0.0321 µM
  TGI: > 100 µM
786-0 renal
  GI50: 0.0411 µM
  TGI: 0.35 µM
KM12 colon
  GI50: 0.191 µM
  TGI: > 34.7 µM
SF-295 CNS
  GI50: 0.131 µM
  TGI: 1.56 µM
OVCAR-4 ovarian
  GI50: 0.094 µM
  TGI: 0.649 µM
A549 NSCLC
  GI50: 0.172 µM
  TGI: 2.8 µM
UO-31 renal
  GI50: 0.114 µM
  TGI: 0.273 µM
BT-549 breast
  GI50: 0.148 µM
  TGI: 0.556 µM
MOLT-4 leukemia
  GI50: 0.0629 µM
  TGI: > 100 µM
DU-145 prostate
  GI50: 0.036 µM
HOP-62 NSCLC
  GI50: 0.239 µM
  TGI: 1.23 µM
CAKI-1 renal
  GI50: 0.041 µM
  TGI: 2.58 µM
OVCAR-3 ovarian
  GI50: 0.0424 µM
  TGI: 0.417 µM
HCT-15 colon
  GI50: 0.0306 µM
  TGI: 31.8 µM
COLO 205 colon
  GI50: 0.11 µM
  TGI: 0.308 µM
SF-539 CNS
  GI50: 0.166 µM
  TGI: 0.388 µM
SK-MEL-5 melanoma
  GI50: 0.137 µM
  TGI: 0.3 µM
MDA-MB-231 breast
  GI50: 0.152 µM
  TGI: 0.806 µM
HS 578T breast
  GI50: 0.296 µM
  TGI: 1.09 µM
TK-10 renal
  GI50: 0.233 µM
  TGI: 2.99 µM
MCF7 breast
  GI50: 0.0273 µM
  TGI: 15.5 µM
RXF 393 renal
  GI50: 0.0612 µM
  TGI: 0.199 µM
M14 melanoma
  GI50: 0.0899 µM
SK-OV-3 ovarian
  GI50: 0.194 µM
  TGI: 1.11 µM
OVCAR-8 ovarian
  GI50: 0.177 µM
  TGI: 4.51 µM
PC-3 prostate
  GI50: 0.135 µM
  TGI: 1.29 µM
SR leukemia
  GI50: 0.0667 µM
  TGI: > 100 µM
OVCAR-5 ovarian
  GI50: 0.0666 µM
  TGI: 0.506 µM
HOP-92 NSCLC
  GI50: 0.148 µM
  TGI: 0.623 µM
T-47D breast
  GI50: 0.207 µM
  TGI: 3.65 µM
NCI-H23 lung
  GI50: 0.0633 µM
  TGI: 0.367 µM
A498 renal
  GI50: 0.148 µM
  TGI: 0.366 µM
NCI/ADR-RES ovarian
  GI50: 0.0772 µM
  TGI: 0.804 µM
CCRF-CEM leukemia
  GI50: 0.206 µM
  TGI: > 100 µM
UACC-257 melanoma
  GI50: 0.28 µM
  TGI: 1.12 µM
SK-MEL-2 melanoma
  GI50: 0.127 µM
  TGI: 0.345 µM
NCI-H226 lung
  GI50: 0.217 µM
  TGI: 0.634 µM
HT29 colon
  GI50: 0.0339 µM
  TGI: > 100 µM
RPMI-8226 leukemia
  GI50: 13.9 µM
  TGI: > 81.5 µM
SN12C renal
  GI50: 0.251 µM
  TGI: 6.21 µM
SNB-75 CNS
  GI50: 0.152 µM
  TGI: 0.35 µM
IGROV1 ovarian
  GI50: 0.0457 µM
  TGI: 0.364 µM
HL-60(TB) leukemia
  GI50: 0.0861 µM
  TGI: 0.852 µM
